These results are taken from patent US9241887B2, “Systems and methods for skin rejuvenation” (Sesvalia USA, LLC, priority 2009, dated 2016).

Data set [1] in a line: Antioxidant activity of active ingredients alone and combined (FIG. 1). The settings on record: for synergistic effect on antioxidant activity: ingredients combined; for antioxidant activity when combined with Vitamin C and Vitamin E: polyphenol derivatives combined with Vitamin C and Vitamin E; for antioxidant activity relative to vehicle: ingredient alone, control = vehicle (mixture of ethanol and macrogol).

The conditions of data set [2]: cited from earlier work.
The conditions of data set [3]: phospholipidic membranes; cited from earlier work.
A further data set has as its system human skin. Conditions: cited from earlier work.
For data set [4] the following is noted: gastrointestinal tract and skin; cited from earlier work.
Data set [5] relates to human polymorphonuclear leukocytes. The settings on record: cited from earlier work.
In data set [6] the test system is seasonal allergic rhinoconjunctivitis. The settings on record: oral supplementation; cited from earlier work.
For data set [7], the system named is human keratinocyte cell lines. The settings on record: cited from earlier work.
The next data set relates to mild atopic dermatitis. The settings on record: 0.3% rosmarinic acid emulsion, topical application; cited from earlier work.

For `COc1cc(/C=C/C(=O)O)ccc1O` [ferulic acid, Ferulic acid], in [1], the “synergistic effect on antioxidant activity” value was “synergistic effect”; the “antioxidant activity when combined with Vitamin C and Vitamin E” value (“antioxidant activity when combined” for short) is recorded as “stronger antioxidant activity (more than twice)”. Besides, the “behaviour at acidic pH” value in [2] (acidic pH) was “precipitates into crystals”.

As for Vitamin E, the “antioxidant activity relative to vehicle” value in data set [1] is “more than twice as much antioxidant activity as the vehicle”.

Consider `O=C(O)/C=C/c1ccc(O)c(O)c1` [caffeic acid, 3,4-dihydroxycinnamic acid], for which, in data set [1], the “antioxidant activity when combined” value is listed as “stronger antioxidant activity (more than twice)”. Besides, the “protection from UV-induced peroxidation” value in [3] is given as “protect phospholipidic membranes from UV-induced peroxidation”. The “protection from UVB-induced erythema” value in the data set with human skin is recorded as “protect human skin from UVB-induced erythema”.

For the molecule `O=C(/C=C/c1ccc(O)c(O)c1)O[C@H](Cc1ccc(O)c(O)c1)C(=O)O` [rosmarinic acid, alpha-o-caffeoyl-3,4-dihydroxyphenyl lactic acid], the “antioxidant activity when combined” value in [1] is “stronger antioxidant activity (more than twice)”. In addition, in data set [4], the absorption entry is “well absorbed through the gastrointestinal tract and the skin”. In data set [5], the “leukotriene B4 production” value was “reduce leukotriene B4 production” and the “prostaglandin E2 production” value is given as “augment prostaglandin E2 production”. The “treatment of seasonal allergic rhinoconjunctivitis” value in [6] is “effective treatment for seasonal allergic rhinoconjunctivitis”. Further, the “photoprotective effect against UVA-induced alterations” value in [7] is “photoprotective effects against alterations induced by UVA exposure”. Besides, the “symptoms of mild atopic dermatitis” value in the data set on mild atopic dermatitis was “improves some symptoms of the disease including the erythema, transepidermal water loss, xerosis and pruritus”.

In the case of `O=C(CCc1ccc(O)cc1)c1c(O)cc(O)cc1O` [phloretin, Phloretin], in data set [1], the “synergistic effect on antioxidant activity” value was “synergistic effect”; the “antioxidant activity when combined” value is reported as “stronger antioxidant activity (more than twice)”. Further, in [2], the solubility in ethanol result is reported as “very soluble in ethanol” and the solubility in water result is reported as “insoluble in water”.

Take `O=C1O[C@H]([C@@H](O)CO)C(O)=C1O` [Vitamin C, ascorbic acid]: in data set [1], the “antioxidant activity relative to vehicle” value is “more than twice as much antioxidant activity as the vehicle” and the “synergistic effect on antioxidant activity” value is on record as “synergistic effect”.
